Patent US9717792B2, “Combination therapy for cancer using HSP27 inhibitor and EGFR tyrosine kinase inhibitors or anti-folates” (The University Of British Columbia, priority 2012, dated 2017)

Legend:
[1] = tested on: A549 lung cancer cells; assay: Western blot of protein levels in A549 cells; format: cell-based, human
Method: Western blots: To perform Westerns, cell lysates were prepared under non-denaturing conditions. Briefly, the cell lysates were to immunoprecipition, and subsequently immunoblotted using antibody and visualized via electrophoresis and autoradiogram.
48 and 72 hours of exposure.
Protein expression was analyzed by western blotting. […] Flow cytometry was used to quantify the percentage of cells in each cell cycle phase.
(§1) Cleaved PARP, p-EGFR(Tyr1068), EGFR, p-Hsp27(Ser82), Hsp27, and Beta-actin were assayed.
Western gels were run on cell protein prepared under standard non-denaturing conditions, and relative levels of p-Hsp27(Ser82), Hsp27, cleaved PARP, and beta-actin were detected using commercial antibodies from Cell Signalling (Danvers, USA). Protein levels from zero to 48 hours for a 1 microMolar pemetrexed exposure were measured.
72 h later, cell viability was determined by crystal violet assay. […] Protein levels were also determined in these cells by immunoblotting.

[2] = tested on: Hsp27 OE A549 cells; assay: Hsp27-overexpressing A549 cells: western blotting and flow cytometry after Erlotinib; format: cell-based, human
Method: The cell viability was determined by crystal violet assay.
The cells undergoing apoptosis (subG0/G1 fraction) were quantified using flow cytometry. FIGS. 4B and C.
as §1

[3] = tested on: HCC827 cells; assay: Western blot of protein levels in HCC827 parental cells; format: cell-based, human; details: erlotinib 2.5 nanomolar; vs non-treated cells
Description: Levels of p-EGFR(Tyr1068), EGFR, Hsp27, Cleaved PARP, Cleaved and whole Caspase-3, and beta-actin (cell protein control) were detected.

[4] = tested on: Hsp27 mRNA; assay: Hsp27 mRNA expression by quantitative RT-PCR in A549 cells; details: 5 or 10 μM Erlotinib for 24 or 48 hours; normalized to GAPDH mRNA
Method: Hsp27 mRNA expression was analyzed by quantitative RT-PCR. Hsp27 mRNA levels were normalized to levels of GAPDH mRNA. Bars, SD. ** and *, differ from control (P<0.01 and P<0.05, respectively).

[5] = molecular target: PKC-dependent phosphorylation of Hsp27 (Homo sapiens, UniProt P04792); details: cited from earlier work
[6] = A549, erlotinib 0 to 20 micromolar, 72 hours
[7] = A549 OE, erlotinib 0 to 20 micromolar, 72 hours

Sequence of PKC-dependent phosphorylation of Hsp27 (P04792 whole entry): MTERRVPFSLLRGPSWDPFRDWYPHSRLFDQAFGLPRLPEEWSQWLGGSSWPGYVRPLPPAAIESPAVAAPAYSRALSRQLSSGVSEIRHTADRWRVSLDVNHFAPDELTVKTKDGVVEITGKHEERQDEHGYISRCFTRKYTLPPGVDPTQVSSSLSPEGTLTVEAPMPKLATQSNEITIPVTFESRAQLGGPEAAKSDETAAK

In the case of C#Cc1cccc(Nc2ncnc3cc(OCCOC)c(OCCOC)cc23)c1 [Erlotinib, erlotinib], the “amounts of EGFR, Hsp27 and p-Hsp27 (Western Blot)” value ([1]; 10 μM Erlotinib, 1, 6, 24, 48 and 72 hours) is reported as “Increasing amounts”, the “cleaved PARP (Western Blot)” value ([1]; 10 μM Erlotinib, 1 to 72 hours) is reported as “observed at all times following 24 hours of treatment” and the “p-EGFR (Tyr 1068) (Western Blot)” value ([1]; 10 μM Erlotinib, 1 to 72 hours) is reported as “not observed following treatment”. For the same molecule, the “p-Hsp27, Hsp27, p-EGFR, EGFR, cleaved PARP (Western Blot), repeat” value ([1]; 48 hours, erlotinib 2.5, 5 and 10 μM) was “Qualitatively similar results”, the “Cleaved PARP (Western)” value [1, 6] was “increased” and the “p-EGFR(Tyr1068) (Western)” value [1, 6] was “decrease”. For the same molecule, the “Cleaved PARP (Western)” value [2, 7] was “increased”, the “p-EGFR(Tyr1068) (Western)” value [2, 7] was “decrease” and the “p-Hsp27(Ser82) (Western)” value [2, 7] was “dose-dependent increase”. The “apoptotic rate in cells with Hsp27 overexpression” value ([2]; Hsp27 OE A549 vs Empty A549, varying levels of erlotinib) was “decreased apoptotic rate”, the “p-EGFR (Tyr068) (Western)” value [3] was “decrease” and the “protein levels of P-Hsp27(ser82), Hsp27 (Western)” value [3] was “increased”. The “Hsp27 mRNA expression” value [4] was “increased Hsp27 expression”.

For CCc1cc(-c2oncc2-c2ccc(OC)cc2)c(O)cc1OC [KRIBB3, 5-(5-Ethyl-2-hydroxy-4-methoxyphenyl)-4-(4-methoxyphenyl)isoxazole], the IC50 [5] is listed as 0.05 µM.

For Nc1nc2[nH]cc(CCc3ccc(C(=O)N[C@@H](CCC(=O)O)C(=O)O)cc3)c2c(=O)[nH]1 [pemetrexed], the “pHsp27 and cleaved PARP signals (Western)” value ([1]; pemetrexed 0, 0.25, 0.5, 1.0 microMoles, zero to 48 hours) was “increase with dose and are greatest at 48 hours”.
